Laboratory results reported in patent publication US6770596B1, “Fused tricyclic compounds, process for their preparation, and herbicidal compositions containing them” (Ishihara Sangyo Kaisha Ltd., priority 2002, dated 2004).

How the values were obtained:
Format in all cases: in vivo
[1] = system: redroot pigweed (Amaranthus retroflexus, AMR); test: Pre-emerge test, redroot pigweed; conditions: 250 g ai/ha, 14 days after application, rating scale 0-100 (0 no damage, 100 complete death)
Source text: (§1) A standard greenhouse herbicide activity screening system was used to evaluate the herbicidal efficacy and crop safety of these test compounds. Seven broadleaf weed species including redroot pigweed (Amaranthus retroflexus, AMR), velvetleaf (Abutilon theophrasti, ABT), sicklepod (Cassia obtusifolia, CAO), ivyleaf morningglory (Ipomoea hederacea, IPH), lambsquarters (Chenopodium album, CHA), common ragweed (Ambrosia artemisiifolia L., AML), and cocklebur (Xanthium strumariunt, XAS) were used as test species. Four grass weed species including green foxtail (Setaria viridis, SEV), barnyardgrass (Echinachloa crus-galli, ECC), johnsongrass (Sorghum halepense, SOH), and large crabgrass (Digitaria sanguinalis, DIS) were also used. In addition, four crop species, field corn (Zea mays L., var. Dekalb 535, CORN), soybean (Glycine max L., var. Pella 86, SOY), upland rice (Oryza sp., var.Tebonnet, RICE), and wheat (Triticum aestivum) were included all plants were grown in 10 cm square plastic pots which were filled with a sandy loam soil mix.
(§2) For pre-emerge tests, seeds were planted one day prior to application of the test compounds. All test compounds were dissolved in acetone and applied to the test pots in a volume of 187 l/ha. Test materials were applied at rates ranging from 8 g ai/ha to 1000 g ai/ha using a track sprayer equipped with a TJ8001E even flow flat fan spray nozzle. This application simulates a typical commercial field herbicide application.
(§3) At 14 days after application of the test materials, phytotoxicity ratings were recorded. A rating scale of 0-100 was used for both pre and post emerge tests as previously described in Research Methods in Weed Science, 2nd edition, B, Truelove, Ed., Southern Weed Science Society, Auburn University, Auburn, Ala., 1977. Briefly, “0” corresponds to no damage and “100” corresponds to complete death of all plants in the test unit. This scale was used both to determine efficacy against weed species and damage to crop species. Herbicide activity data for various compounds of this invention, which are shown by compound No. in Tables 1-3, are shown in Tables 5 and 6.

[2] = system: velvetleaf (Abutilon theophrasti, ABT); test: Pre-emerge test, velvetleaf; conditions: 250 g ai/ha, 14 days after application, rating scale 0-100 (0 no damage, 100 complete death)
Source text: as §1, §2, §3

[3] = system: sicklepod (Cassia obtusifolia, CAO); test: Pre-emerge test, sicklepod; conditions: 250 g ai/ha, 14 days after application, rating scale 0-100 (0 no damage, 100 complete death)
Source text: as §1, §2, §3

[4] = system: ivyleaf morningglory (Ipomoea hederacea, IPH); test: Pre-emerge test, ivyleaf morningglory; conditions: 250 g ai/ha, 14 days after application, rating scale 0-100 (0 no damage, 100 complete death)
Source text: as §1, §2, §3

[5] = system: lambsquarters (Chenopodium album, CHA); test: Pre-emerge test, lambsquarters; conditions: 250 g ai/ha, 14 days after application, rating scale 0-100 (0 no damage, 100 complete death)
Source text: as §1, §2, §3

[6] = system: common ragweed (Ambrosia artemisiifolia L., AML); test: Pre-emerge test, common ragweed; conditions: 250 g ai/ha, 14 days after application, rating scale 0-100 (0 no damage, 100 complete death)
Source text: as §1, §2, §3

[7] = system: cocklebur (Xanthium strumariunt, XAS); test: Pre-emerge test, cocklebur; conditions: 250 g ai/ha, 14 days after application, rating scale 0-100 (0 no damage, 100 complete death)
Source text: as §1, §2, §3

[8] = system: green foxtail (Setaria viridis, SEV); test: Pre-emerge test, green foxtail; conditions: 250 g ai/ha, 14 days after application, rating scale 0-100 (0 no damage, 100 complete death)
Source text: as §1, §2, §3

[9] = system: barnyardgrass (Echinachloa crus-galli, ECC); test: Pre-emerge test, barnyardgrass; conditions: 250 g ai/ha, 14 days after application, rating scale 0-100 (0 no damage, 100 complete death)
Source text: as §1, §2, §3

[10] = system: johnsongrass (Sorghum halepense, SOH); test: Pre-emerge test, johnsongrass; conditions: 250 g ai/ha, 14 days after application, rating scale 0-100 (0 no damage, 100 complete death)
Source text: as §1, §2, §3

[11] = system: large crabgrass (Digitaria sanguinalis, DIS); test: Pre-emerge test, large crabgrass; conditions: 250 g ai/ha, 14 days after application, rating scale 0-100 (0 no damage, 100 complete death)
Source text: as §1, §2, §3

[12] = system: field corn (Zea mays L., var. Dekalb 535, CORN); test: Pre-emerge test, crop damage field corn; conditions: var. Dekalb 535, Zea mays (field corn), in vivo, 14 days
Source text: as §1, §2, §3

[13] = system: soybean (Glycine max L., var. Pella 86, SOY); test: Pre-emerge test, crop damage soybean; conditions: var. Pella 86, Glycine max (soybean), in vivo, 14 days
Source text: as §1, §2, §3

[14] = system: upland rice (Oryza sp., var.Tebonnet, RICE); test: Pre-emerge test, crop damage upland rice; conditions: var. Tebonnet, Oryza sp. (upland rice), in vivo, 14 days
Source text: as §1, §2, §3

[15] = system: wheat (Triticum aestivum); test: Pre-emerge test, crop damage wheat; conditions: Triticum aestivum (wheat), in vivo, 14 days
Source text: as §1, §2, §3

[16] = system: redroot pigweed (Amaranthus retroflexus, AMR); test: Post-emerge test, redroot pigweed; conditions: 250 g ai/ha, 14 days after application, rating scale 0-100 (0 no damage, 100 complete death)
Source text: as §1, §2
(§4) For post-emerge tests, seeds were planted 8-21 days prior to the test to allow emergence and good foliage development prior to application of the test substances. At the time of the post-emerge application, plants of all species were usually at the 2-3 leaf stage of development. In the postemerge test, a commercial non-ionic surfactant was also included (0.25% v/v) to enhance wetting of the leaf surfaces of target plants.
as §3

[17] = system: velvetleaf (Abutilon theophrasti, ABT); test: Post-emerge test, velvetleaf; conditions: 250 g ai/ha, 14 days after application, rating scale 0-100 (0 no damage, 100 complete death)
Source text: as §1, §2, §4, §3

[18] = system: sicklepod (Cassia obtusifolia, CAO); test: Post-emerge test, sicklepod; conditions: 250 g ai/ha, 14 days after application, rating scale 0-100 (0 no damage, 100 complete death)
Source text: as §1, §2, §4, §3

[19] = system: ivyleaf morningglory (Ipomoea hederacea, IPH); test: Post-emerge test, ivyleaf morningglory; conditions: 250 g ai/ha, 14 days after application, rating scale 0-100 (0 no damage, 100 complete death)
Source text: as §1, §2, §4, §3

[20] = system: lambsquarters (Chenopodium album, CHA); test: Post-emerge test, lambsquarters; conditions: 250 g ai/ha, 14 days after application, rating scale 0-100 (0 no damage, 100 complete death)
Source text: as §1, §2, §4, §3

[21] = system: common ragweed (Ambrosia artemisiifolia L., AML); test: Post-emerge test, common ragweed; conditions: 250 g ai/ha, 14 days after application, rating scale 0-100 (0 no damage, 100 complete death)
Source text: as §1, §2, §4, §3

[22] = system: cocklebur (Xanthium strumariunt, XAS); test: Post-emerge test, cocklebur; conditions: 250 g ai/ha, 14 days after application, rating scale 0-100 (0 no damage, 100 complete death)
Source text: as §1, §2, §4, §3

[23] = system: green foxtail (Setaria viridis, SEV); test: Post-emerge test, green foxtail; conditions: 250 g ai/ha, 14 days after application, rating scale 0-100 (0 no damage, 100 complete death)
Source text: as §1, §2, §4, §3

[24] = system: barnyardgrass (Echinachloa crus-galli, ECC); test: Post-emerge test, barnyardgrass; conditions: 250 g ai/ha, 14 days after application, rating scale 0-100 (0 no damage, 100 complete death)
Source text: as §1, §2, §4, §3

[25] = system: johnsongrass (Sorghum halepense, SOH); test: Post-emerge test, johnsongrass; conditions: 250 g ai/ha, 14 days after application, rating scale 0-100 (0 no damage, 100 complete death)
Source text: as §1, §2, §4, §3

[26] = system: large crabgrass (Digitaria sanguinalis, DIS); test: Post-emerge test, large crabgrass; conditions: 250 g ai/ha, 14 days after application, rating scale 0-100 (0 no damage, 100 complete death)
Source text: as §1, §2, §4, §3

[27] = system: field corn (Zea mays L., var. Dekalb 535, CORN); test: Post-emerge test, crop damage field corn; conditions: var. Dekalb 535, Zea mays (field corn), in vivo, 14 days
Source text: as §1, §2, §4, §3

[28] = system: soybean (Glycine max L., var. Pella 86, SOY); test: Post-emerge test, crop damage soybean; conditions: var. Pella 86, Glycine max (soybean), in vivo, 14 days
Source text: as §1, §2, §4, §3

[29] = system: upland rice (Oryza sp., var.Tebonnet, RICE); test: Post-emerge test, crop damage upland rice; conditions: var. Tebonnet, Oryza sp. (upland rice), in vivo, 14 days
Source text: as §1, §2, §4, §3

[30] = system: wheat (Triticum aestivum); test: Post-emerge test, crop damage wheat; conditions: Triticum aestivum (wheat), in vivo, 14 days
Source text: as §1, §2, §4, §3

Cn1nc(-c2c(F)cc3c4c2NC(=O)CN4C(=O)CO3)c(Cl)c1OC(F)F [1-25, 8-[4-Chloro-5-(difluoromethoxy)-1-methyl-1H-pyrazole-3-yl)-9-fluoro-5H-pyrazino[1,2,3-de]-1,4-benzoxazine-3,6(2H, 7H)-dione]
99: Pre-emerge crop damage CORN (phytotoxicity rating) [12] | Post-emerge Herbicidal Activity AML (phytotoxicity rating) [21]
35: Post-emerge crop damage CORN (phytotoxicity rating) [27]
100: Pre-emerge Herbicidal Activity AMR (phytotoxicity rating) [1] | Pre-emerge Herbicidal Activity ABT (phytotoxicity rating) [2] | Pre-emerge Herbicidal Activity CAO (phytotoxicity rating) [3] | Pre-emerge Herbicidal Activity IPH (phytotoxicity rating) [4] | Pre-emerge Herbicidal Activity CHA (phytotoxicity rating) [5] | Pre-emerge Herbicidal Activity AML (phytotoxicity rating) [6] | Pre-emerge Herbicidal Activity SEV (phytotoxicity rating) [8] | Pre-emerge Herbicidal Activity ECC (phytotoxicity rating) [9] | Pre-emerge Herbicidal Activity SOH (phytotoxicity rating) [10] | Pre-emerge Herbicidal Activity DIS (phytotoxicity rating) [11] | Post-emerge Herbicidal Activity AMR (phytotoxicity rating) [16] | Post-emerge Herbicidal Activity ABT (phytotoxicity rating) [17] | Post-emerge Herbicidal Activity CAO (phytotoxicity rating) [18] | Post-emerge Herbicidal Activity IPH (phytotoxicity rating) [19] | Post-emerge Herbicidal Activity CHA (phytotoxicity rating) [20] | Post-emerge Herbicidal Activity XAS (phytotoxicity rating) [22] | Post-emerge Herbicidal Activity SEV (phytotoxicity rating) [23] | Post-emerge crop damage SOY (phytotoxicity rating) [28] | Post-emerge crop damage RICE (phytotoxicity rating) [29]
95: Pre-emerge Herbicidal Activity XAS (phytotoxicity rating) [7] | Post-emerge Herbicidal Activity ECC (phytotoxicity rating) [24]
40: Pre-emerge crop damage SOY (phytotoxicity rating) [13]
60: Post-emerge Herbicidal Activity SOH (phytotoxicity rating) [25] | Post-emerge Herbicidal Activity DIS (phytotoxicity rating) [26] | Post-emerge crop damage WHEAT (phytotoxicity rating) [30]
85: Pre-emerge crop damage RICE (phytotoxicity rating) [14] | Pre-emerge crop damage WHEAT (phytotoxicity rating) [15]
